What was measured:
Format in all cases: cell-based
[1] = test system: E. coli Juhl A15119; test: MIC by two-fold agar dilution; details: Mueller-Hinton agar, unit assumed
[2] = test system: E. coli K-12 A9632; test: MIC by two-fold agar dilution; details: Mueller-Hinton agar, unit assumed
[3] = test system: E. coli A20683; test: MIC by two-fold agar dilution; details: Mueller-Hinton agar, unit assumed
[4] = test system: E. cloacae A21006; test: MIC by two-fold agar dilution; details: Mueller-Hinton agar, unit assumed
[5] = test system: K. pneumoniae A9678; test: MIC by two-fold agar dilution; details: Mueller-Hinton agar, unit assumed
[6] = test system: K. pneumoniae A20680; test: MIC by two-fold agar dilution; details: Mueller-Hinton agar, unit assumed
[7] = test system: P. vulgaris A9436; test: MIC by two-fold agar dilution; details: Mueller-Hinton agar, unit assumed
[8] = test system: P morganii A9553; test: MIC by two-fold agar dilution; details: Mueller-Hinton agar, unit assumed
[9] = test system: P. rettgeri A15167; test: MIC by two-fold agar dilution; details: Mueller-Hinton agar, unit assumed
[10] = test system: P. stuartii A20894; test: MIC by two-fold agar dilution; details: Mueller-Hinton agar, unit assumed
[11] = test system: P. stuartii A20734; test: MIC by two-fold agar dilution; details: Mueller-Hinton agar, unit assumed
[12] = test system: S. marcescens A20333; test: MIC by two-fold agar dilution; details: Mueller-Hinton agar, unit assumed
[13] = test system: S. marcescens A21235; test: MIC by two-fold agar dilution; details: Mueller-Hinton agar, unit assumed
[14] = test system: P. aeruginosa A9930; test: MIC by two-fold agar dilution; details: Mueller-Hinton agar, unit assumed
[15] = test system: P. aeruginosa H9, D113; test: MIC by two-fold agar dilution; details: Mueller-Hinton agar, unit assumed
[16] = test system: P. aeruginosa A20741; test: MIC by two-fold agar dilution; details: Mueller-Hinton agar, unit assumed
[17] = test system: S. aureus 209P; test: MIC by two-fold agar dilution; details: Mueller-Hinton agar, unit assumed
[18] = test system: S. aureus #193; test: MIC by two-fold agar dilution; details: Mueller-Hinton agar, unit assumed
[19] = test system: S. aureus 209P, R4; test: MIC by two-fold agar dilution; details: Mueller-Hinton agar, unit assumed
Protocol: The minimum inhibitory concentrations (MIC) of Bu-2231 A and B were determined against a wide variety of bacteria and fungi by the two-fold agar dilution method. Mueller-Hinton agar medium was used for the determination of bacterial MIC's (gram-positive and gram-negative), Medium #1001 [Glycerol (3%). Na-glutamate (0.3%), peptone (0.2%), Na2 HPO4 (0.31%), KH2 PO4 (0.1%), ammonium citrate (0.005%), MgSO4.7H2 O (0.001%), agar (1.5%)] for acid-fast bacteria and sabouraud agar for fungi. The results are shown in Tables 9 and 10 comparatively with bleomycin and phleomycin. The antibacterial and antifungal activities of Bu-2231 A and B are much higher than those of the reference antibiotics.

[20] = test system: S. aureus A20239; test: MIC by two-fold agar dilution; details: Mueller-Hinton agar, unit assumed
[21] = test system: S. lutea PCI-1001; test: MIC by two-fold agar dilution; details: Mueller-Hinton agar, unit assumed
[22] = test system: M. flavus D12; test: MIC by two-fold agar dilution; details: Mueller-Hinton agar, unit assumed
[23] = test system: B. mycoides "0"; details: Mueller-Hinton agar, unit assumed
[24] = test system: B. sphaericus #122; test: MIC by two-fold agar dilution; details: Mueller-Hinton agar, unit assumed
[25] = test system: B. cereus ATCC 10702A; test: MIC by two-fold agar dilution; details: Mueller-Hinton agar, unit assumed
[26] = test system: B. subtilis PCI-219; test: MIC by two-fold agar dilution; details: Mueller-Hinton agar, unit assumed
[27] = test system: B. anthracis 115; details: Mueller-Hinton agar, unit assumed
[28] = test system: Mycobacterium 607, D46; test: MIC by two-fold agar dilution; details: Medium #1001, unit assumed
[29] = test system: Mycobacterium 607, D47; test: MIC by two-fold agar dilution; details: Medium #1001, unit assumed
[30] = test system: C. albicans IAM 4888; test: MIC by two-fold agar dilution; details: Ca-1 C. albicans IAM 4888; sabouraud agar; unit assumed
[31] = test system: C. albicans #520 Yale A9540; test: MIC by two-fold agar dilution; details: Ca-4 C. albicans #520 Yale A9540; sabouraud agar; unit assumed
[32] = test system: C. krusei IAM 4489; test: MIC by two-fold agar dilution; details: Ck-1 C. krusei IAM 4489; sabouraud agar; unit assumed
[33] = test system: C. krusei #96 A15052; test: MIC by two-fold agar dilution; details: Ck-2 C. krusei #96 A15052; sabouraud agar; unit assumed
[34] = test system: C. tropicalis IAM 4157; test: MIC by two-fold agar dilution; details: Ct-1 C. tropicalis IAM 4157; sabouraud agar; unit assumed
[35] = test system: C. neoformans (Cn-1); test: MIC by two-fold agar dilution; details: Cn-1 C. neoformans; sabouraud agar; unit assumed
[36] = test system: C. neoformans IAM 4514; test: MIC by two-fold agar dilution; details: Cn-2 C. neoformans IAM 4514; sabouraud agar; unit assumed
[37] = test system: S. cerevisiae ATCC 9763; test: MIC by two-fold agar dilution; details: Sc-1 S. cerevisiae ATCC 9763; sabouraud agar; unit assumed
[38] = test system: Hormodendrum sp.; test: MIC by two-fold agar dilution; details: Hy-1 Hormodendrum sp.; sabouraud agar; unit assumed
[39] = test system: Mucor sp.; test: MIC by two-fold agar dilution; details: My-1 Mucor sp.; sabouraud agar; unit assumed
[40] = test system: P. citrinum IAM 7008; test: MIC by two-fold agar dilution; details: Pt-1 P. citrinum IAM 7008; sabouraud agar; unit assumed
[41] = test system: T. mentagrophytes D-155; test: MIC by two-fold agar dilution; details: Tm-1 T. mentagrophytes D-155; sabouraud agar; unit assumed
[42] = test system: T. rubrum D-55; test: MIC by two-fold agar dilution; details: Tr-1 T. rubrum D-55; sabouraud agar; unit assumed

Phleomycin [reference compound] gave an MIC [1] of 1.6 µg/mL, an MIC [2] of 1.6 µg/mL and an MIC [3] greater than 100 µg/mL. The MIC [4] was 50 µg/mL, the MIC [5] was 12.5 µg/mL and the MIC [6] was greater than 100 µg/mL. For the same substance, the MIC [7] was 0.8 µg/mL, the MIC [8] was 6.3 µg/mL and the MIC [9] was 3.1 µg/mL. It also gave an MIC [10] of 0.8 µg/mL, an MIC [11] of 1.6 µg/mL and an MIC [12] of 0.8 µg/mL. For the same substance, the MIC [13] was 0.8 µg/mL, the MIC [14] was 3.1 µg/mL and the MIC [15] was greater than 100 µg/mL. For the same substance, the MIC [16] was 6.3 µg/mL, the MIC [17] was 0.2 µg/mL and the MIC [18] was 0.2 µg/mL. The MIC [19] was 0.4 µg/mL, the MIC [20] was 0.4 µg/mL and the MIC [21] was 0.4 µg/mL. The MIC [22] was 0.2 µg/mL, the MIC [23] was 0.2 µg/mL and the MIC [24] was 0.4 µg/mL. It also gave an MIC [25] of 0.2 µg/mL, an MIC [26] of less than 0.0063 µg/mL and an MIC [27] of 0.4 µg/mL. It also gave an MIC [28] of 0.2 µg/mL, an MIC [29] of 0.2 µg/mL and an MIC [30] of 3.1 µg/mL. The MIC [31] was 6.3 µg/mL, the MIC [32] was 0.8 µg/mL and the MIC [33] was 0.8 µg/mL. The MIC [34] was 3.1 µg/mL, the MIC [35] was 0.4 µg/mL and the MIC [36] was 0.4 µg/mL. The MIC [37] was 0.8 µg/mL, the MIC [38] was 0.8 µg/mL and the MIC [39] was 3.1 µg/mL. It also gave an MIC [40] of 3.1 µg/mL, an MIC [41] of 12.5 µg/mL and an MIC [42] of 3.1 µg/mL.

— US4051237A, “Glycopeptide antibiotics Bu-2231 A and B and process for producing same” (priority 1975, dated 1977)
